Experimental data reported in patent publication US9238654B2, “Singleton inhibitors of sumoylation enzymes and methods for their use” (CITY OF HOPE, priority 2010, dated 2016).
Read-outs that look alike come from different tables or passages of the source.

Tests used:
[1] = target: T1, SUMO E1 (Homo sapiens, UniProt Q9UBE0+Q9UBT2); assay: Rate of SUMO~E1 product formation with increasing inhibitor concentrations; format: biochemical
T1 sequence (Q9UBE0 1-346): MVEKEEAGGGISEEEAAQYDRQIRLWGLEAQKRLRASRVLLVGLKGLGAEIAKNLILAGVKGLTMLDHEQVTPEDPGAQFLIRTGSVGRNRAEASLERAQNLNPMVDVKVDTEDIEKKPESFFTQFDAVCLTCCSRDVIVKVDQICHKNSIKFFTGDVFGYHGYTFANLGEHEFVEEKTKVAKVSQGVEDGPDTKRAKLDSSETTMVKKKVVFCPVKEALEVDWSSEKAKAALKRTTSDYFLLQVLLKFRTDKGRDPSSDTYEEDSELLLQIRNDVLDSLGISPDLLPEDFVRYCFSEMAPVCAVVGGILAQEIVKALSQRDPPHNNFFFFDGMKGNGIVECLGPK
T1 sequence (Q9UBT2 1-640): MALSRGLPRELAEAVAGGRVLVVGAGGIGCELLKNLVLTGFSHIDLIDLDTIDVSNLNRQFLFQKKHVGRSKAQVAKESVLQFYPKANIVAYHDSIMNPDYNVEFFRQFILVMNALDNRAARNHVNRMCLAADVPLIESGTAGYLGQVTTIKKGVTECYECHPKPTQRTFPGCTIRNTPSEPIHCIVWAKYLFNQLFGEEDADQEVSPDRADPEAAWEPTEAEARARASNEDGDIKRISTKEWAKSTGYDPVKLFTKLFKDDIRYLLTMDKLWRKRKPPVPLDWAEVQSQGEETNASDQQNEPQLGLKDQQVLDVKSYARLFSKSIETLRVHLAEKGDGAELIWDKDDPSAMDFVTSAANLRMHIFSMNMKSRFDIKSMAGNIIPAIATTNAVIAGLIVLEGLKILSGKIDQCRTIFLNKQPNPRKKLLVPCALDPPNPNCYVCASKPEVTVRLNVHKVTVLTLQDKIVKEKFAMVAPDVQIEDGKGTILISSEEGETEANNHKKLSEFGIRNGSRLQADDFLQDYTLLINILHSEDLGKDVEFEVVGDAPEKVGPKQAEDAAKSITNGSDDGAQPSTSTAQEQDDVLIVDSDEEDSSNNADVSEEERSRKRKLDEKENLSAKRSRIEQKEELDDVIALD
Method: Data is analyzed by fitting to a rectangular hyperbolic to extract IC50 (lower left) or the solution to a quadratic equation to determine Ki^app (lower right).
Their inhibitory constants were measured in the reaction to monitor the rate of SUMO˜E1 product formation in the presence of increasing concentrations of inhibitors (FIG. 5). Inhibition studies were performed in both the presence and absence of 0.02% Triton X-100 to ensure against potential promiscuous inhibition by premicelles due to the formation of aggregates. Inhibition data was fit to a rectangular hyperbolic to extract an IC50 (Equation 1). The Ki^app was extracted by fitting the percent inhibition as a function of inhibitor concentration using equations 1 and 2 (FIG. 5) (Spengler et al. 2005). % Inhibition=([I]*Vmax)/([I]+IC50) (Equation 1) v/v0=(1−(([E]0+[I]+Ki^app)−(([E]0+[I]+Ki^app)^2−4([E]0[I]))^1/2)/2[E]0 (Equation 2)

[2] = Stability in Tris buffer, parent remaining by HPLC-MS; format: physicochemical; conditions: for % Remaining after 60 min in 50 mM Tris (−BSA): without BSA; for % Remaining after 60 min in 50 mM Tris (+BSA): with BSA
Method: Stable compounds in Tris were tested with and without BSA. Amount of parent compound remaining was quantified using HPLC-MS (area under the curve (AUC) method).

[3] = system: Immortalized human hepatocytes, Fa2N-4 cells; assay: Hepatocyte toxicity, cell viability by cellular ATP levels; format: cell-based; conditions: concentrations up to 50 μM, 24 hrs
Method: FIG. 10 illustrates that E1 inhibitor MLS-0437113 has low toxicity in a normal liver cell line. Immortalized human hepatocytes, Fa2N-4 cells (XenoTech) were seeded at ˜50-60K cells/well, and incubated with a range of concentrations (0.01-50 μM) 1, in duplicate, for 24 hrs at 37° C., 5% CO2. Cell viability was determined by cellular ATP levels using the Luminescence ATP Detection Assay System (Tecan).

[4] = target: T2, SUMO E1 or SUMO E2 (Homo sapiens, UniProt Q9UBE0+Q9UBT2); assay: SUMOylation HTS assay, SUMO (AlphaScreen-BSA), SUMOylation of RanGAP1; format: biochemical
T2 sequence (Q9UBE0 1-346): T1 sequence (Q9UBE0 1-346)
T2 sequence (Q9UBT2 1-640): T1 sequence (Q9UBT2 1-640)
Method: (§1) A lead compound was selected, and is identified herein as MLS0437113 (FIG. 3).
(§2) Each singleton analog was analyzed to determine its inhibitory effect on SUMOylation and ubiquitination, tested both in the HTS format and gel-based format (FIG. 4).

[5] = target: T1, SUMO E1; assay: Gel-based assay of SUMO-RanGap1, E1-SUMO and E2~SUMO thioester conjugate formation; format: biochemical; conditions: for Inhibitory effect on SUMOylation, comparison within the series: HTS and gel-based format, each inhibitor 10 μM (FIG. 4); for SUMO-RanGap1 and SUMO-E2 Conjugation Inhibition: strength in words
Method: FIG. 4 illustrates a representative assay to determine the efficacy of E1 inhibitors generated from a singleton probe. Stereo-specific effects of this series in inhibiting the SUMO E1. […] Negative and positive controls were reactions in the absence and presence of ATP. […] The compounds that are immediately right to them in the assays, MLS-0437114 and MLS-0437121, are their stereo-isomers, respectively. The stereo chemistry was determined by X-ray crystallography.
as §2
The molecular weight (MW), IC50, strength of SUMO-RanGap1 and SUMO-E2 conjugation inhibition of the SUMO E1 inhibitors derived from the singleton scaffold (see Table 1 above for structures) generated according to the embodiments herein are shown in Table 3 below.

[6] = target: T3, ubiquitin E1 (Homo sapiens, UniProt P22314); assay: Poly-ubiquitination assay using ubiquitin, ubiquitin E1, Ubc5 and Apc11; format: biochemical; conditions: SUMO E1 versus ubiquitin E1, derived from the IC50s of HTS assays
T3 sequence (P22314 1-1058): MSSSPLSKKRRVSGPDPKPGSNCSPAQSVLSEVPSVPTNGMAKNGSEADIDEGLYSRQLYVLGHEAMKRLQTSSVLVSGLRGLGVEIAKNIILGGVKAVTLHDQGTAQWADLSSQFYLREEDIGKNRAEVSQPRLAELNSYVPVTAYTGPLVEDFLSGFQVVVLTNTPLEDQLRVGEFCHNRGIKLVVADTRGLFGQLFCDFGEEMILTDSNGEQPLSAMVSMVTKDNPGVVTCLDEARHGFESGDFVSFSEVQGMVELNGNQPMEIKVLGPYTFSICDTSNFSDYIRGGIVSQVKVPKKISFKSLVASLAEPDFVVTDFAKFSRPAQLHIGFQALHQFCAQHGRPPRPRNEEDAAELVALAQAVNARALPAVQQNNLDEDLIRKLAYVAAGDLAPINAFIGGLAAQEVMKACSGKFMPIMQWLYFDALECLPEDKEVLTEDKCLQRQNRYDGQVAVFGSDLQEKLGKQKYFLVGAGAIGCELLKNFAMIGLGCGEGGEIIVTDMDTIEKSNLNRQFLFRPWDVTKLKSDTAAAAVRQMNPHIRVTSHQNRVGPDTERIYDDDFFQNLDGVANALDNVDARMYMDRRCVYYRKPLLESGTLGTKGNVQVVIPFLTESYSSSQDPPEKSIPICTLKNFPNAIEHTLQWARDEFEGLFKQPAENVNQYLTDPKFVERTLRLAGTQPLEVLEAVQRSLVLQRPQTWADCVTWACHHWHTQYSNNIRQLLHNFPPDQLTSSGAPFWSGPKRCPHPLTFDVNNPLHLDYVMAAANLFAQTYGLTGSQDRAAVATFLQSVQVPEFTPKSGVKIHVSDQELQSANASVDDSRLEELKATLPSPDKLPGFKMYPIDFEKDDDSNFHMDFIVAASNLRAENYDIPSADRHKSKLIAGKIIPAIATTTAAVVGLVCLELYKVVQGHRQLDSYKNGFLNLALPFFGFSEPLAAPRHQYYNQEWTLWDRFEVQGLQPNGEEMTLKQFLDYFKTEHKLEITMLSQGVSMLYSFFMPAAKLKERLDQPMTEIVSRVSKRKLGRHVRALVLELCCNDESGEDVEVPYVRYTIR
Method: as §1, §2

[7] = system: MCF-7 cells; assay: Inhibition of global SUMOylation in cells, Western blot with anti-SUMO antibodies; format: cell-based; conditions: compound in culture media 8-18 h
Method: Western blots (probed with anti-SUMO2/3 antibodies) of cell lysates from MCF-7 cells treated with the inhibitor. SUMO2/3 modifies many proteins as poly-SUMO chains, and is detected as high molecular weight smears.
In this experiment, the compound was added to cell culture media at the indicated concentrations for 8-18 h. Then SUMOylated proteins were detected using anti-SUMO antibodies.

For COC(=O)C1=C(C(=O)OC)[C@@]2([C@@H](Cc3ccccc3)Nc3ccccc3)C=C[C@@H]1O2 (racemic) [MLS-0437113, Dimethyl 1-(2-Phenyl-1-(phenylamino)ethyl)-7-oxabicyclo[2.2.1]hepta-2,5-diene-2,3-dicarboxylate], the “Inhibition of SUMO E1, potency in words” value [1] was “similarly potent”, the “Inhibition of SUMO E1, potency in words” value ([1]; listed as MLS0437113) was “submicromolar inhibition” and the “% Remaining after 60 min in 50 mM Tris (−BSA)” value (from here on “% Remaining … (−BSA)”) [2] was 0%. The “Stability in Tris buffer, in words” value [2] was “unstable”, the “Toxicity in human hepatocytes” value [3] was “low toxicity” and the “SUMO (AlphaScreen-BSA) IC50” value [4] was 0.47 µM. For the same compound, the “Inhibitory effect on SUMOylation, comparison within the series” value (“Inhibitory effect on SUMOylation” for short) [5] was “most potent inhibitor in this series” and the “SUMO-RanGap1 and SUMO-E2 Conjugation Inhibition” value [5] was “Strong”.

In the case of COC(=O)C1=C(C(=O)OC)C2([C@H](Cc3ccccc3)Nc3ccccc3)C=CC1O2 (mixture of isomers) [MLS-0437114], the “SUMO (AlphaScreen-BSA) IC50” value [4] is reported as 11.7 µM, the “Inhibitory effect on SUMOylation” value [5] is reported as “significantly less inhibitory” and the “SUMO-RanGap1 and SUMO-E2 Conjugation Inhibition” value [5] is reported as “Weak”.

With COC(=O)C1=C(C(=O)OC)C2([C@@H](Cc3ccccc3)Nc3ccc(Cl)cc3)C=CC1O2 (mixture of isomers) [MLS-0437120] the “% Remaining … (−BSA)” value [2] was 29%, the “SUMO (AlphaScreen-BSA) IC50” value [4] was 5.2 µM and the “Inhibitory effect on SUMOylation” value [5] was “more inhibitory than MLS-0437121”. The “SUMO-RanGap1 and SUMO-E2 Conjugation Inhibition” value [5] was “Weak”.

With COC(=O)C1=C(C(=O)OC)C2([C@H](Cc3ccccc3)Nc3ccc(Cl)cc3)C=CC1O2 (mixture of isomers) [MLS-0437121] the “SUMO (AlphaScreen-BSA) IC50” value [4] was 9.2 µM and the “SUMO-RanGap1 and SUMO-E2 Conjugation Inhibition” value [5] was “Very Weak”.

For CCC[C@H](Nc1ccccc1)C12C=C[C@H](O1)C(C(=O)OC)=C2C(=O)OC (stereo in doubt) [MLS-0437313], the “% Remaining after 60 min in 50 mM Tris (+BSA)” value (“% Remaining … (+BSA)” for short) [2] was 89%, the “% Remaining … (−BSA)” value [2] was 48% and the “SUMO/ubiquitin Selectivity” value [6] was >100.

For COC(=O)C1=C(C(=O)OC)C2([C@@H](Nc3ccccc3)c3ccc(C)cc3)C=C[C@@H]1O2 (stereo in doubt) [MLS-0437317], the “Inhibition of SUMO E1, potency in words” value [1] was “high potency”, the “% Remaining … (+BSA)” value [2] was 85% and the “% Remaining … (−BSA)” value [2] was 86%. The “Stability in Tris buffer, in words” value [2] was “stable”, the “Inhibition of global SUMOylation” value [7] was “inhibited global SUMOylation in a dose-dependent manner” and the “SUMO/ubiquitin Selectivity” value [6] was >100.

In the case of COC(=O)C1=C(C(=O)OC)C2([C@@H](Cc3ccccc3)Nc3ccc(C)cc3)C=CC1O2 (some centres unmarked) [MLS-0437109], the “SUMO (AlphaScreen-BSA) IC50” value [4] is reported as 6.9 µM and the “SUMO-RanGap1 and SUMO-E2 Conjugation Inhibition” value [5] is reported as “Weak”.

In the case of COC(=O)C1=C(C(=O)OC)C2([C@H](Cc3ccccc3)Nc3ccc(C)cc3)C=CC1O2 (some centres unmarked) [MLS-0437110], the “SUMO (AlphaScreen-BSA) IC50” value [4] is reported as 9.2 µM and the “SUMO-RanGap1 and SUMO-E2 Conjugation Inhibition” value [5] is reported as “Very Weak”.

For C=CC[C@@H](Nc1ccccc1)C12C=CC(O1)C(C(=O)OC)=C2C(=O)OC (some centres unmarked) [MLS-0437111], the “SUMO (AlphaScreen-BSA) IC50” value [4] was 3.3 µM and the “SUMO-RanGap1 and SUMO-E2 Conjugation Inhibition” value [5] was “Strong”.

For COC(=O)C1=C(C(=O)OC)C2([C@@H](Cc3ccccc3)Nc3ccc(OC)cc3)C=CC1O2 (some centres unmarked) [MLS-0437118], the “SUMO (AlphaScreen-BSA) IC50” value [4] was 9.5 µM and the “SUMO-RanGap1 and SUMO-E2 Conjugation Inhibition” value [5] was “Very Weak”.

With C=CC[C@@H](Nc1ccc(Cl)cc1)C12C=CC(O1)C(C(=O)OC)=C2C(=O)OC (some centres unmarked) [MLS-0437126] the “SUMO (AlphaScreen-BSA) IC50” value [4] was 12.5 µM and the “SUMO-RanGap1 and SUMO-E2 Conjugation Inhibition” value [5] was “Weak”.

In the case of C=CC[C@H](Nc1ccc(Cl)cc1)C12C=CC(O1)C(C(=O)OC)=C2C(=O)OC (some centres unmarked) [MLS-0437127], the “SUMO (AlphaScreen-BSA) IC50” value [4] is reported as 11.5 µM and the “SUMO-RanGap1 and SUMO-E2 Conjugation Inhibition” value [5] is reported as “Weak”.

For COC(=O)C1=C(C(=O)OC)C2(C(Nc3ccccc3)c3ccc(F)cc3)C=C[C@@H]1O2 (some centres unmarked) [MLS-0437320], the “% Remaining … (+BSA)” value [2] was 87%, the “% Remaining … (−BSA)” value [2] was 84% and the “SUMO/ubiquitin Selectivity” value [6] was >100.

For COC(=O)C1=C(C(=O)OC)C2(C(Nc3ccccc3)c3ccc(OC(F)(F)F)cc3)C=C[C@@H]1O2 (some centres unmarked) [MLS-0437321], the “% Remaining … (+BSA)” value [2] was 64%, the “% Remaining … (−BSA)” value [2] was 82% and the “SUMO/ubiquitin Selectivity” value [6] was >100.
